Earlier results, collected in US20120189739A1, “Naturally-Sweetened Reduced-Calorie Base Syrup Compositions and Compositions Sweetened Therewith” (IMPERIAL SUGAR COMPANY, priority 2010, published 2012).

Conditions: Prakash et al. 2008; Kinghorn et al. 1999

SMILES | times sweeter than sucrose
C=C1C[C@@]23CC[C@H]4[C@@](C)(CCC[C@@]4(C)C(=O)O[C@@H]4O[C@H](CO)[C@@H](O)[C@H](O)[C@H]4O)[C@@H]2CC[C@]1(O[C@@H]1O[C@H](CO)[C@@H](O)[C@H](O[C@@H]2O[C@H](CO)[C@@H](O)[C@H](O)[C@H]2O)[C@H]1O[C@@H]1O[C@H](CO)[C@@H](O)[C@H](O)[C@H]1O)C3 [rebaudioside A] | 200-300 times
C=C1C[C@@]23CC[C@H]4[C@@](C)(CCC[C@@]4(C)C(=O)O[C@@H]4O[C@H](CO)[C@@H](O)[C@H](O)[C@H]4O)[C@@H]2CC[C@]1(O[C@@H]1O[C@H](CO)[C@@H](O)[C@H](O)[C@H]1O[C@@H]1O[C@H](CO)[C@@H](O)[C@H](O)[C@H]1O)C3 [stevioside] | about 200 times
